In patent US9822110B2, “Sulfonamide derivative and pharmaceutical use thereof” (EA Pharma Co., Ltd., priority 2013, dated 2017):
pIC50: −log10 of the molar value.

Target: T1, MAdCAM-1/α4β7 integrin (Homo sapiens, UniProt P13612+P26010)
T1 construct: a human B-cell line known to express α4β7 integrin; endogenous in cells; host or cells: RPMI-8866 (human B-cell line)
T1 sequence (P13612 34-1032): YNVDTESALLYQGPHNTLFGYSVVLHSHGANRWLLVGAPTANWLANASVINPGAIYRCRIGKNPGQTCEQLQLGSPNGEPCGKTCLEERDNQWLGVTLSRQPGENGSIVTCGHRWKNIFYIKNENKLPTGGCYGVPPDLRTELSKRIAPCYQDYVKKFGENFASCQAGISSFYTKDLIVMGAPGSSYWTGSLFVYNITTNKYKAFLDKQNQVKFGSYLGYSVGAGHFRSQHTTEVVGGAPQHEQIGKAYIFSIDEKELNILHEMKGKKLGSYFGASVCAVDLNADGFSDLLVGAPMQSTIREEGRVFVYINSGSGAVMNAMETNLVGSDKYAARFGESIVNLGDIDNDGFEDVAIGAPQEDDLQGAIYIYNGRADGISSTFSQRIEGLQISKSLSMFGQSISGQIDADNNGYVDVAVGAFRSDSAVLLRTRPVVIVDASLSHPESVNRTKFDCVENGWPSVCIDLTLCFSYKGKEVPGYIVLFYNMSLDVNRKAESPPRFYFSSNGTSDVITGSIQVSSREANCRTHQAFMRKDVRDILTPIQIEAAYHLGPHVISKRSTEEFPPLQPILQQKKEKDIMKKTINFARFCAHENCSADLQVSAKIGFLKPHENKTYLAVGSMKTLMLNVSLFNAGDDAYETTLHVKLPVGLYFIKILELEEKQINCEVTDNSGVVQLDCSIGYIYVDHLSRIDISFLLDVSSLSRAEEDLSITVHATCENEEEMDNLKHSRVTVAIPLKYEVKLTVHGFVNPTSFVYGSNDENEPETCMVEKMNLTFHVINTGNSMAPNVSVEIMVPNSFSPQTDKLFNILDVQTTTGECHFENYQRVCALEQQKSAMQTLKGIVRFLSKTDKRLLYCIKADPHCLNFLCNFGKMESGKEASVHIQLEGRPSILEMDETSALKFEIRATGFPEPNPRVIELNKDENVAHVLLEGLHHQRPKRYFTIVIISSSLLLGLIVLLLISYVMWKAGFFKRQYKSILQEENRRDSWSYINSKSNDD
T1 sequence (P26010 20-798): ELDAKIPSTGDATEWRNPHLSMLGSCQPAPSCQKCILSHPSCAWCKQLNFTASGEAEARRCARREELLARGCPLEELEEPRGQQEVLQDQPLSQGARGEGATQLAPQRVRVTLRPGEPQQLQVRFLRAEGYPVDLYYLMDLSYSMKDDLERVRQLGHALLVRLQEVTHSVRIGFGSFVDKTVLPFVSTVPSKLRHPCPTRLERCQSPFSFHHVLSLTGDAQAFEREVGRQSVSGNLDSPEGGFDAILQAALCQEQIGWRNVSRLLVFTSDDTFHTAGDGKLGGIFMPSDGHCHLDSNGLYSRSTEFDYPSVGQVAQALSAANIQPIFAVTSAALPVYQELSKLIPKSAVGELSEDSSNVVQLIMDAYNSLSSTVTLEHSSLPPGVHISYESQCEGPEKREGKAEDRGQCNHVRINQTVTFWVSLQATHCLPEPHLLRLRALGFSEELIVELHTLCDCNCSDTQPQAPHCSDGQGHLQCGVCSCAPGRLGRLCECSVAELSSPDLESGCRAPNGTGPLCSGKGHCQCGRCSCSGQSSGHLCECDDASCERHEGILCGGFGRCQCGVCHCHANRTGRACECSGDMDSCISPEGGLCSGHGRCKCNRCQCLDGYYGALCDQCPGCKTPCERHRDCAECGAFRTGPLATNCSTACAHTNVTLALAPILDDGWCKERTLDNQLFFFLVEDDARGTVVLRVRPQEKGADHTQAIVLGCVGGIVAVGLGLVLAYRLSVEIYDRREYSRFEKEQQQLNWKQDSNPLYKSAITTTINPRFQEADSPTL
Experiment: Evaluation test (1) for MAdCAM-1/α4β7 integrin binding inhibitory activity in the presence of serum (RPMI-8866 cell binding to MAdCAM-1/Fc)
Assay type: cell-based
Details: RPMI-8866 cells, recombinant mouse MAdCAM-1/Fc, human serum at final concentration of 50%; read-out: α4β7 Serum Activity rank when α4β7 serum was added
Procedure: The selectivity was determined by dividing the IC50 value in the evaluation test for VCAM-1/α4β1 integrin binding inhibitory activity by the IC50 value in the evaluation test for MAdCAM-1/α4β7 integrin binding inhibitory activity. • (3) Evaluation Test (1) for MAdCAM-1/α4β7 Integrin Binding Inhibitory Activity in the Presence of Serum
The ability of test substances to inhibit the binding of RPMI-8866 cell line, a human B-cell line known to express α4β7 integrin, to MAdCAM-1 was examined.
A 96-well microtiter plate was coated overnight at 4° C. with a recombinant mouse MAdCAM-1/Fc (R&D systems) solution diluted with the buffer A (carbonate buffer, pH 9.6). After washing once with PBS, 150 μL/well of Block Ace (manufactured by Snow Brand Milk Products Co., Ltd.) was added, and it was incubated at room temperature for 2 hours. After removal, it was washed once with PBS.
100 μL of each of test substances and RPMI-8866 cells diluted with a binding buffer solution (DMEM containing 40 mM HEPES, 0.2% BSA, and 4 mM MnCl2) to various concentrations was added to the plate coated with MAdCAM-1/Fc, so that human serum was contained at a final concentration of 50%, and it was incubated at 30° C. for 15 minutes to 60 minutes. After the cells were bound to the wells, unbound cells were removed by washing with PBS. 50 μL/well of the buffer solution C (PBS containing 1.5% Triton X-100) was added to the plate to dissolve the bound RPMI-8866 cells. 30 μL of substrate buffer (Promega, CytoTox 96 Non-Radioactive Cytotoxicity Assay) was added to 30 μL of a cell lysate to allow a reaction for 30 minutes at room temperature in a dark place. 30 μL of stop solution (Promega, CytoTox 96 Non-Radioactive Cytotoxicity Assay) was added thereto to determine the absorbance at 490 nm using a plate reader. The absorbance was obtained herein by detecting the activity of lactate dehydrogenase (LDH) eluted in a supernatant of each well, that is, the absorbance is proportional to the number of RPMI-8866 cells remaining on the plate by being bound to MAdCAM-1. The test was duplicated, and the cell binding rate at various concentrations with the absorbance of the well containing no test substance being taken as 100% was determined, to calculate the concentration IC50 at which 50% of binding was inhibited.

Row | Structure (SMILES) | pIC50
1 | Cn1c(=O)n(-c2ccc(C[C@H](NC(=O)c3cc(F)c(NS(=O)(=O)c4ccc(-c5cnc(C6CCNCC6)nc5)cc4)cc3F)C(=O)O)nc2)c(=O)c2ccncc21 [Example 26, (2S)-2-[[2,5-Difluoro-4-[[4-[2-(4-piperidyl)pyrimidin-5-yl]phenyl]sulfonylamino]benzoyl]amino]-3-[5-(1-methyl-2,4-dioxo-pyrido[3,4-d]pyrimidin-3-yl)-2-pyridyl]propanoic acid] | 7.30 to 8.00
2 | Cn1c(=O)n(-c2ccc(C[C@H](NC(=O)c3cc(F)c(NS(=O)(=O)c4ccc(-c5cnc(C6CCOCC6)nc5)cc4)cc3F)C(=O)O)nc2)c(=O)c2ccncc21 [Example 27, (2S)-2-[[2,5-Difluoro-4-[[4-(2-tetrahydropyran-4-ylpyrimidin-5-yl)phenyl]sulfonylamino]benzoyl]amino]-3-[5-(1-methyl-2,4-dioxo-pyrido[3,4-d]pyrimidin-3-yl)-2-pyridyl]propionic acid] | 6.70 to 7.30
3 | COCc1ncc(-c2ccc(S(=O)(=O)Nc3cc(F)c(C(=O)N[C@@H](Cc4ccc(-n5c(=O)c6ccncc6n(C)c5=O)cn4)C(=O)O)cc3F)cc2)cn1 [Example 28, (2S)-2-[[2,5-Difluoro-4-[[4-[2-(methoxymethyl)pyrimidin-5-yl]phenyl]sulfonylamino]benzoyl]amino]-3-[5-(1-methyl-2,4-dioxo-pyrido[3,4-d]pyrimidin-3-yl)-2-pyridyl]propanoic acid] | 7.30 to 8.00
4 | COCc1cn(-c2ccc(S(=O)(=O)Nc3cc(F)c(C(=O)N[C@@H](Cc4ccc(-n5c(=O)c6ccncc6n(C)c5=O)cn4)C(=O)O)cc3F)cc2)nn1 [Example 29, (2S)-2-[[2,5-Difluoro-4-[[4-[4-(methoxymethyl)triazol-1-yl]phenyl]sulfonylamino]benzoyl]amino]-3-[5-(1-methyl-2,4-dioxo-pyrido[3,4-d]pyrimidin-3-yl)-2-pyridyl]propanoic acid] | 6.70 to 7.30
5 | C=CCn1cc(-c2ccc(S(=O)(=O)Nc3cc(F)c(C(=O)N[C@@H](Cc4ccc(-n5c(=O)c6ccncc6n(C)c5=O)cn4)C(=O)O)cc3F)cc2)cnc1=O [Example 30, (2S)-2-[[4-[[4-(1-Allyl-2-oxo-pyrimidin-5-yl)phenyl]sulfonylamino]-2,5-difluoro-benzoyl]amino]-3-[5-(1-methyl-2,4-dioxo-pyrido[3,4-d]pyrimidin-3-yl)-2-pyridyl]propanoic acid] | 7.30 to 8.00
6 | CN(C)CCc1ncc(-c2ccc(S(=O)(=O)Nc3cc(F)c(C(=O)N[C@@H](Cc4ccc(-n5c(=O)c6ccncc6n(C)c5=O)cn4)C(=O)O)cc3F)cc2)cn1 [Example 33, (2S)-2-[[4-[[4-[2-(2-Dimethylaminoethyl)pyrimidin-5-yl]phenyl]sulfonylamino]-2,5-difluoro-benzoyl]amino]-3-[5-(1-methyl-2,4-dioxo-pyrido[3,4-d]pyrimidin-3-yl)-2-pyridyl]propanoic acid] | 7.30 to 8.00
7 | Cn1c(=O)n(-c2ccc(C[C@H](NC(=O)c3cc(F)c(NS(=O)(=O)c4ccc(-c5ccnc(C6CCOCC6)c5)cn4)cc3F)C(=O)O)nc2)c(=O)c2ccncc21 [Example 34, (2S)-2-[[2,5-Difluoro-4-[[5-(2-tetrahydropyran-4-yl-4-pyridyl)-2-pyridyl]sulfonylamino]benzoyl]amino]-3-[5-(1-methyl-2,4-dioxo-pyrido[3,4-d]pyrimidin-3-yl)-2-pyridyl]propanoic acid] | 7.30 to 8.00
8 | Cc1c(-c2ccc(C[C@H](NC(=O)c3cc(F)c(NS(=O)(=O)c4ccc(-c5cnc(N6CCC6)nc5)cc4)cc3F)C(=O)O)cc2)c(=O)n(C)c(=O)n1C [Example 36, (2S)-2-[[4-[[4-[2-(Azetidin-1-yl)pyrimidin-5-yl]phenyl]sulfonylamino]-2,5-difluoro-benzoyl]amino]-3-[4-(1,3,4-trimethyl-2,6-dioxo-pyrimidin-5-yl)phenyl]propanoic acid] | 6.70 to 7.30
9 | Cc1cn(-c2ccc(S(=O)(=O)Nc3cc(F)c(C(=O)N[C@@H](Cc4ccc(-c5c(C)n(C)c(=O)n(C)c5=O)cc4)C(=O)O)cc3F)nc2)nn1 [Example 37, (2S)-2-[[2,5-Difluoro-4-[[5-(4-methyltriazol-1-yl)-2-pyridyl]sulfonylamino]benzoyl]amino]-3-[4-(1,3,4-trimethyl-2,6-dioxo-pyrimidin-5-yl)phenyl]propanoic acid] | 7.30 to 8.00
10 | Cc1c(-c2ccc(C[C@H](NC(=O)c3cc(F)c(NS(=O)(=O)c4ccco4)cc3F)C(=O)O)cc2)c(=O)n(C)c(=O)n1C [Example 38, (2S)-2-[[2,5-Difluoro-4-(2-furylsulfonylamino)benzoyl]amino]-3-[4-(1,3,4-trimethyl-2,6-dioxo-pyrimidin-5-yl)phenyl]propanoic acid] | 7.30 to 8.00
11 | CNCc1ccc2c(c1)c(=O)n(-c1ccc(C[C@H](NC(=O)c3cc(F)c(NS(=O)(=O)c4ccc(-c5cnc(COC)nc5)cc4)cc3F)C(=O)O)cc1)c(=O)n2C [Example 39, (2S)-2-[[2,5-Difluoro-4-[[4-[2-(methoxymethyl)pyrimidin-5-yl]phenyl]sulfonylamino]benzoyl]amino]-3-[4-[1-methyl-6-(methylaminomethyl)-2,4-dioxo-quinazolin-3-yl]phenyl]propanoic acid] | 7.30 to 8.00
12 | Cc1c(-c2ccc(C[C@H](NC(=O)c3cc(F)c(NS(=O)(=O)c4ccc(-c5cnc(COC(C)C)nc5)cc4)cc3F)C(=O)O)cc2)c(=O)n(C)c(=O)n1C [Example 40, (2S)-2-[[2,5-Difluoro-4-[[4-[2-(isopropoxymethyl)pyrimidin-5-yl]phenyl]sulfonylamino]benzoyl]amino]-3-[4-(1,3,4-trimethyl-2,6-dioxo-pyrimidin-5-yl)phenyl]propanoic acid] | 6.70 to 7.30
